In PMC5218480 (PLoS ONE, 2017):

System: MV-4-11 cells
Assay: Gene expression microarray analysis (Affymetrix PrimeView) and GSEA
Type: cell-based, human
Parameters: RFU PODN (11730768_x_at) / Fold change /veh PODN (11730768_x_at) / RFU LINC00158 (11744669_a_at) / Fold change /veh LINC00158 (11744669_a_at) / RFU DUSP10 (11751237_a_at) / Fold change /veh DUSP10 (11751237_a_at) / RFU ID3 (11757404_x_at) / Fold change /veh ID3 (11757404_x_at) / RFU PLEKHG5 (11737974_s_at) / Fold change /veh PLEKHG5 (11737974_s_at) / RFU LRRC4B (11730491_at) / Fold change /veh LRRC4B (11730491_at) / RFU GIMAP4 (11747438_a_at) / Fold change /veh GIMAP4 (11747438_a_at) / RFU KRT8 (11758183_x_at) / Fold change /veh KRT8 (11758183_x_at) / RFU CNN1 (11734310_a_at) / Fold change /veh CNN1 (11734310_a_at) / RFU VPS37D (11726825_at) / Fold change /veh VPS37D (11726825_at) / RFU C10orf10 (11716522_x_at) / Fold change /veh C10orf10 (11716522_x_at) / RFU KIR2DL2 /// KIR2DL4 /// KIR2DL5A /// KIR2DL5B /// KIR2DS1 /// KIR2DS2 /// KIR2DS3 /// KIR2DS4 /// KIR3DL3 /// KIR3DL3 /// KIR3DS1 (11738374_at) / Fold change /veh KIR2DL2 /// KIR2DL4 /// KIR2DL5A /// KIR2DL5B /// KIR2DS1 /// KIR2DS2 /// KIR2DS3 /// KIR2DS4 /// KIR3DL3 /// KIR3DL3 /// KIR3DS1 (11738374_at) / RFU C1QL1 (11718748_at) / Fold change /veh C1QL1 (11718748_at) / RFU TMPRSS4 (11747572_a_at) / Fold change /veh TMPRSS4 (11747572_a_at) / RFU HAMP (11756126_x_at) / Fold change /veh HAMP (11756126_x_at) / RFU RNFT2 (11725882_a_at) / Fold change /veh RNFT2 (11725882_a_at) / RFU NR4A2 (11747474_a_at) / Fold change /veh NR4A2 (11747474_a_at) / RFU ABCC12 (11746883_a_at) / Fold change /veh ABCC12 (11746883_a_at) / RFU TMEM136 (11760407_x_at) / Fold change /veh TMEM136 (11760407_x_at) / RFU CLDN22 /// WWC2 (11732394_at) / Fold change /veh CLDN22 /// WWC2 (11732394_at) / RFU HLA-DPB1 (11760878_x_at) / Fold change /veh HLA-DPB1 (11760878_x_at) / RFU SPINT1 (11716480_a_at) / Fold change /veh SPINT1 (11716480_a_at) / RFU GAP43 (11754022_s_at) / Fold change /veh GAP43 (11754022_s_at) / RFU A4GNT (11735810_at) / Fold change /veh A4GNT (11735810_at) / RFU PRB3 (11715151_x_at) / Fold change /veh PRB3 (11715151_x_at) / RFU TUBB4B (11761932_at) / Fold change /veh TUBB4B (11761932_at) / RFU CAPN14 (11732068_a_at) / Fold change /veh CAPN14 (11732068_a_at) / RFU TMCC2 (11721928_a_at) / Fold change /veh TMCC2 (11721928_a_at) / RFU IRGQ (11745062_a_at) / Fold change /veh IRGQ (11745062_a_at) / RFU FAM174B (11720279_a_at) / Fold change /veh FAM174B (11720279_a_at) / RFU TMPRSS4 (11748680_a_at) / Fold change /veh TMPRSS4 (11748680_a_at) / RFU FAM212B (11763350_a_at) / Fold change /veh FAM212B (11763350_a_at) / RFU PLEKHG5 (11743358_a_at) / Fold change /veh PLEKHG5 (11743358_a_at) / RFU ZSCAN30 (11745921_a_at) / Fold change /veh ZSCAN30 (11745921_a_at) / RFU CMKLR1 (11741424_a_at) / Fold change /veh CMKLR1 (11741424_a_at) / RFU LOC101060620 /// MAPK8IP1 (11723275_at) / Fold change /veh LOC101060620 /// MAPK8IP1 (11723275_at) / RFU SPTSSB (11747773_x_at) / Fold change /veh SPTSSB (11747773_x_at) / RFU PRSS12 (11739890_at) / Fold change /veh PRSS12 (11739890_at) / RFU BIN1 (11741810_x_at) / Fold change /veh BIN1 (11741810_x_at) / RFU WNT11 (11732464_a_at) / Fold change /veh WNT11 (11732464_a_at) / RFU C10orf10 (11716521_a_at) / Fold change /veh C10orf10 (11716521_a_at) / RFU C5orf56 (11738089_at) / Fold change /veh C5orf56 (11738089_at) / RFU CYB561 (11721691_x_at) / Fold change /veh CYB561 (11721691_x_at) / RFU ANKRD19P (11752326_a_at) / Fold change /veh ANKRD19P (11752326_a_at) / RFU OR2T12 /// OR2T33 /// OR2T8 (11738714_s_at) / Fold change /veh OR2T12 /// OR2T33 /// OR2T8 (11738714_s_at) / RFU VCAN (11748164_a_at) / Fold change /veh VCAN (11748164_a_at) / RFU JSRP1 (11732532_at) / Fold change /veh JSRP1 (11732532_at) / RFU KRTAP10-11 (11738290_x_at) / Fold change /veh KRTAP10-11 (11738290_x_at) / RFU MYO3A (11730013_a_at) / Fold change /veh MYO3A (11730013_a_at) / RFU EBF3 (11725865_a_at) / Fold change /veh EBF3 (11725865_a_at) / RFU CAMK2N1 (11719241_x_at) / Fold change /veh CAMK2N1 (11719241_x_at) / RFU C5orf56 (11738088_a_at) / Fold change /veh C5orf56 (11738088_a_at) / RFU OLFML3 (11715873_a_at) / Fold change /veh OLFML3 (11715873_a_at) / RFU LOC100653217 /// NTM (11731650_a_at) / Fold change /veh LOC100653217 /// NTM (11731650_a_at) / RFU MAPK11 (11762145_a_at) / Fold change /veh MAPK11 (11762145_a_at) / RFU FIZ1 (11724087_x_at) / Fold change /veh FIZ1 (11724087_x_at) / RFU OASL (11726364_x_at) / Fold change /veh OASL (11726364_x_at) / RFU SOX15 (11748057_x_at) / Fold change /veh SOX15 (11748057_x_at) / RFU CD79A (11719716_a_at) / Fold change /veh CD79A (11719716_a_at) / RFU HIST1H1D (11736915_at) / Fold change /veh HIST1H1D (11736915_at) / RFU CASKIN2 (11723855_a_at) / Fold change /veh CASKIN2 (11723855_a_at) / RFU LOC730098 (11760151_x_at) / Fold change /veh LOC730098 (11760151_x_at) / RFU OR4N2 (11742367_at) / Fold change /veh OR4N2 (11742367_at) / RFU PRRT2 (11749266_a_at) / Fold change /veh PRRT2 (11749266_a_at) / RFU SNX32 (11753110_a_at) / Fold change /veh SNX32 (11753110_a_at) / RFU CDHR5 (11726645_a_at) / Fold change /veh CDHR5 (11726645_a_at) / RFU RCAN1 (11760418_a_at) / Fold change /veh RCAN1 (11760418_a_at) / RFU FAM167A (11723789_a_at) / Fold change /veh FAM167A (11723789_a_at) / RFU FAM26E (11764081_at) / Fold change /veh FAM26E (11764081_at) / RFU ISYNA1 (11749810_s_at) / Fold change /veh ISYNA1 (11749810_s_at) / RFU ACY1 (11761880_at) / Fold change /veh ACY1 (11761880_at) / RFU 11764098_at / Fold change /veh 11764098_at / RFU SAMD14 (11745864_x_at) / Fold change /veh SAMD14 (11745864_x_at) / RFU NPB (11741838_a_at) / Fold change /veh NPB (11741838_a_at) / RFU TMPRSS6 (11731388_a_at) / Fold change /veh TMPRSS6 (11731388_a_at) / RFU KRTAP10-2 (11738614_at) / Fold change /veh KRTAP10-2 (11738614_at) / RFU ARHGAP8 /// PRR5-ARHGAP8 (11727945_x_at) / Fold change /veh ARHGAP8 /// PRR5-ARHGAP8 (11727945_x_at) / RFU KRTAP5-7 /// NADSYN1 (11734609_at) / Fold change /veh KRTAP5-7 /// NADSYN1 (11734609_at) / RFU RASL12 (11751679_a_at) / Fold change /veh RASL12 (11751679_a_at) / RFU CDKN2B (11736163_a_at) / Fold change /veh CDKN2B (11736163_a_at) / RFU PRF1 (11729649_at) / Fold change /veh PRF1 (11729649_at) / RFU, ZNF638 /// ZNF638-IT1 / Fold change vs veh, ZNF638 /// ZNF638-IT1 / RFU, PANK3 / Fold change vs veh, PANK3 / RFU, SH3YL1 / Fold change vs veh, SH3YL1 / RFU, ZEB2 / Fold change vs veh, ZEB2 / RFU, NRIP1 / Fold change vs veh, NRIP1 / RFU, PTTG1IP / Fold change vs veh, PTTG1IP / RFU, CAPN2 / Fold change vs veh, CAPN2 / RFU, MED14 / Fold change vs veh, MED14 / RFU, SNORA58 / Fold change vs veh, SNORA58 / RFU, C1orf63 / Fold change vs veh, C1orf63 / RFU, LRRFIP1 / Fold change vs veh, LRRFIP1 / RFU, NDUFAF7 / Fold change vs veh, NDUFAF7 / RFU, SLC12A2 / Fold change vs veh, SLC12A2 / RFU, IBTK / Fold change vs veh, IBTK / RFU, ESF1 / Fold change vs veh, ESF1 / Fold change vs veh, TMEM50B / RFU, TAOK1 / Fold change vs veh, TAOK1 / RFU, ACBD3 / Fold change vs veh, ACBD3 / RFU, TMA16 / Fold change vs veh, TMA16 / RFU, RWDD3 / Fold change vs veh, RWDD3 / RFU, BCAT1 / Fold change vs veh, BCAT1 / RFU, EDEM3 / Fold change vs veh, EDEM3 / RFU, TMEM33 / Fold change vs veh, TMEM33 / RFU, WDR75 / Fold change vs veh, WDR75 / RFU, AHCTF1 / Fold change vs veh, AHCTF1 / RFU, TFRC / Fold change vs veh, TFRC / RFU, ZDHHC17 / Fold change vs veh, ZDHHC17 / RFU, NOM1 / Fold change vs veh, NOM1 / RFU, ARL8B / Fold change vs veh, ARL8B / RFU, ZBTB11 / Fold change vs veh, ZBTB11 / RFU, TAMM41 / Fold change vs veh, TAMM41 / RFU, KIAA1704 /// LOC100996395 / Fold change vs veh, KIAA1704 /// LOC100996395 / RFU, ING1 / Fold change vs veh, ING1 / RFU, TRMT61B / Fold change vs veh, TRMT61B / RFU, FUBP3 / Fold change vs veh, FUBP3 / RFU, TP53 / Fold change vs veh, TP53 / RFU, TNKS2 / Fold change vs veh, TNKS2 / RFU, ZFP14 / Fold change vs veh, ZFP14 / RFU, ACTR2 / Fold change vs veh, ACTR2 / RFU, PPP3R1 / Fold change vs veh, PPP3R1 / RFU, PIK3R1 / Fold change vs veh, PIK3R1 / RFU, HNRNPA1 / Fold change vs veh, HNRNPA1 / RFU, RNF170 / Fold change vs veh, RNF170 / RFU, ZNF28 / Fold change vs veh, ZNF28 / RFU, RNGTT / Fold change vs veh, RNGTT / RFU, OGT / Fold change vs veh, OGT / RFU, BRD1 / Fold change vs veh, BRD1 / RFU, MARS / Fold change vs veh, MARS / RFU, ZNF655 / Fold change vs veh, ZNF655 / RFU, FAHD1 / Fold change vs veh, FAHD1 / RFU, BDP1 / Fold change vs veh, BDP1 / RFU, LRRCC1 / Fold change vs veh, LRRCC1 / RFU, ARID1A / Fold change vs veh, ARID1A / RFU, ZNF146 / Fold change vs veh, ZNF146 / RFU, ZNF330 / Fold change vs veh, ZNF330 / RFU, GPN3 / Fold change vs veh, GPN3 / RFU, C9orf123 / Fold change vs veh, C9orf123 / RFU, N4BP2L2 / Fold change vs veh, N4BP2L2 / RFU, ARFIP1 / Fold change vs veh, ARFIP1 / RFU, FAM179B / Fold change vs veh, FAM179B / RFU, BCL10 / Fold change vs veh, BCL10 / RFU, UHRF1BP1L / Fold change vs veh, UHRF1BP1L / RFU, BET1 / Fold change vs veh, BET1 / RFU, CNOT2 / Fold change vs veh, CNOT2 / RFU, ZNF268 / Fold change vs veh, ZNF268 / Fold change vs veh, ZNF507 / RFU, DGCR2 / Fold change vs veh, DGCR2 / RFU, WDSUB1 / Fold change vs veh, WDSUB1 / Fold change vs veh, HSP90B1 /// MIR3652 / RFU, ADSS / Fold change vs veh, ADSS / RFU, GK / Fold change vs veh, GK / RFU, ZNF148 / Fold change vs veh, ZNF148 / RFU, TAF9 / Fold change vs veh, TAF9 / RFU, SLC1A5 / Fold change vs veh, SLC1A5 / RFU, SLMO2 / Fold change vs veh, SLMO2 / RFU, ABCC4 / Fold change vs veh, ABCC4 / RFU, LOC101060439 /// RAP1B / Fold change vs veh, LOC101060439 /// RAP1B / RFU, RFX7 / Fold change vs veh, RFX7 / RFU, GTPBP10 / Fold change vs veh, GTPBP10 / RFU, CNEP1R1 / Fold change vs veh, CNEP1R1 / RFU, BIVM-ERCC5 /// ERCC5 / Fold change vs veh, BIVM-ERCC5 /// ERCC5 / RFU, ILF3 / Fold change vs veh, ILF3 / RFU 11762660_at / Fold change /veh 11762660_at / RFU VCAN (11757783_s_at) / Fold change /veh VCAN (11757783_s_at) / RFU DDX43 (11728927_at) / Fold change /veh DDX43 (11728927_at) / RFU KRT8 (11758188_x_at) / Fold change /veh KRT8 (11758188_x_at) / RFU NKD1 (11759106_at) / Fold change /veh NKD1 (11759106_at) / RFU SRD5A1 (11742802_a_at) / Fold change /veh SRD5A1 (11742802_a_at) / RFU TPSAB1 /// TPSB2 (11721975_s_at) / Fold change /veh TPSAB1 /// TPSB2 (11721975_s_at) / RFU GSTM3 (11746129_a_at) / Fold change /veh GSTM3 (11746129_a_at) / RFU IL23R (11737362_x_at) / Fold change /veh IL23R (11737362_x_at) / RFU TMEM51 (11727254_a_at) / Fold change /veh TMEM51 (11727254_a_at) / RFU PIWIL2 (11732686_x_at) / Fold change /veh PIWIL2 (11732686_x_at) / RFU ORM1 (11744905_x_at) / Fold change /veh ORM1 (11744905_x_at) / RFU CCDC152 (11743942_at) / Fold change /veh CCDC152 (11743942_at) / RFU ECM1 (11717891_a_at) / Fold change /veh ECM1 (11717891_a_at) / RFU IL23R (11748794_a_at) / Fold change /veh IL23R (11748794_a_at) / RFU TNFAIP8L3 (11732012_x_at) / Fold change /veh TNFAIP8L3 (11732012_x_at) / RFU MBOAT4 (11741988_at) / Fold change /veh MBOAT4 (11741988_at) / RFU 11764193_at / Fold change /veh 11764193_at / RFU TMEM53 (11763286_at) / Fold change /veh TMEM53 (11763286_at) / RFU MAGEB2 (11727129_at) / Fold change /veh MAGEB2 (11727129_at) / RFU TMEM200A (11744735_a_at) / Fold change /veh TMEM200A (11744735_a_at) / RFU CCDC152 (11751479_a_at) / Fold change /veh CCDC152 (11751479_a_at) / RFU FAM211A (11726209_a_at) / Fold change /veh FAM211A (11726209_a_at) / RFU RGS16 (11746705_a_at) / Fold change /veh RGS16 (11746705_a_at) / RFU VCAN (11755009_s_at) / Fold change /veh VCAN (11755009_s_at) / RFU RHOB (11743442_s_at) / Fold change /veh RHOB (11743442_s_at) / RFU RGS16 (11720943_a_at) / Fold change /veh RGS16 (11720943_a_at) / RFU RGS16 (11720944_at) / Fold change /veh RGS16 (11720944_at) / RFU, VPS4B / Fold change vs veh, VPS4B / RFU, CREB1 / Fold change vs veh, CREB1 / RFU, DNAJC13 / Fold change vs veh, DNAJC13 / RFU, GNAQ / Fold change vs veh, GNAQ / RFU, CDK5R1 / Fold change vs veh, CDK5R1 / RFU, ZRANB3 / Fold change vs veh, ZRANB3 / RFU, CUL4A / Fold change vs veh, CUL4A / RFU, CCNY / Fold change vs veh, CCNY / RFU, UFL1 / Fold change vs veh, UFL1 / RFU, COG3 / Fold change vs veh, COG3 / RFU, DIAPH2 / Fold change vs veh, DIAPH2 / RFU, SKA2 / Fold change vs veh, SKA2 / RFU, AFF3 / Fold change vs veh, AFF3 / RFU, LMF1 / Fold change vs veh, LMF1 / RFU, IPO11 / Fold change vs veh, IPO11 / RFU, DFFB / Fold change vs veh, DFFB / RFU, FOXP1 / Fold change vs veh, FOXP1 / RFU, CARD8 / Fold change vs veh, CARD8 / RFU, STRN3 / Fold change vs veh, STRN3 / RFU, ADK / Fold change vs veh, ADK / RFU, RASSF2 / Fold change vs veh, RASSF2 / RFU, WIPF1 / Fold change vs veh, WIPF1 / RFU, LARP1B / Fold change vs veh, LARP1B / RFU, RASA1 / Fold change vs veh, RASA1 / RFU, RB1 / Fold change vs veh, RB1 / RFU, PPFIA1 / Fold change vs veh, PPFIA1 / RFU, MAT2A / Fold change vs veh, MAT2A / RFU, CCT5 / Fold change vs veh, CCT5 / RFU, WDR92 / Fold change vs veh, WDR92 / RFU, CUX1 / Fold change vs veh, CUX1 / RFU, TTC7A / Fold change vs veh, TTC7A / RFU, TMEM135 / Fold change vs veh, TMEM135 / RFU, DEPTOR / Fold change vs veh, DEPTOR / RFU, CPM / Fold change vs veh, CPM / RFU, DNAJB6 / Fold change vs veh, DNAJB6 / RFU, CACNA2D3 / Fold change vs veh, CACNA2D3 / RFU, DTX4 / Fold change vs veh, DTX4 / RFU, TFCP2 / Fold change vs veh, TFCP2 / RFU, GMCL1 /// GMCL1P1 / Fold change vs veh, GMCL1 /// GMCL1P1 / RFU, AEBP2 / Fold change vs veh, AEBP2 / RFU, SNHG1 /// SNORD22 /// SNORD25 /// SNORD26 /// SNORD27 /// SNORD28 /// SNORD29 /// SNORD31 / Fold change vs veh, SNHG1 /// SNORD22 /// SNORD25 /// SNORD26 /// SNORD27 /// SNORD28 /// SNORD29 /// SNORD31 / Fold change (Aza/veh), C12orf56 (ProbeSet 11735607_a_at) / Fold change (ACY-1035/veh), C12orf56 (ProbeSet 11735607_a_at) / Fold change (Aza/veh), FGFR1OP (ProbeSet 11751329_s_at) / Fold change (ACY-1035/veh), FGFR1OP (ProbeSet 11751329_s_at) / Fold change (Aza/veh), VPS36 (ProbeSet 11739960_a_at) / Fold change (ACY-1035/veh), VPS36 (ProbeSet 11739960_a_at) / RFU SYPL1 (11715823_x_at) / Fold change /veh SYPL1 (11715823_x_at) / RFU IGFBP7 (11715501_s_at) / Fold change /veh IGFBP7 (11715501_s_at) / RFU REEP3 (11722064_at) / Fold change /veh REEP3 (11722064_at) / RFU IGLL1 (11728026_x_at) / Fold change /veh IGLL1 (11728026_x_at): dose or concentration left out as unconfirmed
Conditions: MV-4-11 cells, 48 hours

Structure (SMILES): Nc1ccc(-c2cccs2)cc1NC(=O)c1ccc2c(c1)cc(C1CC1)n2CCN1CCOCC1 [ACY-1035]
- RFU ISYNA1 (11749810_s_at): 21.49 RFU
